Laboratory results published in ChEMBL document CHEMBL1201862, “PubChem BioAssay data set” (2004).
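A five-concentration, 48-hour dose response in 96-well plates underlies each endpoint, interpolated linearly between surrounding concentrations. The concentration for 50% growth inhibition is given as GI50.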 Activity calls are given as the source filed them. Rule as the data show it: active = GI50 up to about 1.1 µM and inactive = higher.

Columns and labels:
Experiment in all cases: NCI anticancer screen, dose series, 48 h
CCRF-CEM = system: CCRF-CEM
U-251 = system: U-251
SF-295 = system: SF-295
M14 = system: M14
UACC-257 = system: UACC-257
HCT-15 = system: HCT-15
SF-539 = system: SF-539
SK-OV-3 = system: SK-OV-3
RPMI-8226 = system: RPMI-8226
NCI-H460 = system: NCI-H460
SK-MEL-5 = system: SK-MEL-5
SNB-19 = system: SNB-19
A549 = system: A549
T47D = system: T47D
SK-MEL-28 = system: SK-MEL-28
UO-31 = system: UO-31
HL-60 = system: HL-60
NCI-H23 = system: NCI-H23
RXF 393 = system: RXF 393
KM12 = system: KM12
COLO 205 = system: COLO 205
MDA-MB-231 = system: MDA-MB-231
SW-620 = system: SW-620
SF-268 = system: SF-268
HOP-62 = system: HOP-62
OVCAR-4 = system: OVCAR-4
SN12C = system: SN12C
PC-3 = system: PC-3
OVCAR-5 = system: OVCAR-5
IGROV-1 = system: IGROV-1
SNB-75 = system: SNB-75
UACC-62 = system: UACC-62
K562 = system: K562
HOP-92 = system: HOP-92
MCF7 = system: MCF7
MDA-MB-435 = system: MDA-MB-435
DU-145 = system: DU-145
OVCAR-3 = system: OVCAR-3
LOX IMVI = system: LOX IMVI
TK-10 = system: TK-10
786-0 = system: 786-0
CAKI-1 = system: CAKI-1
MDA-N = system: MDA-N
Hs-578T = system: Hs-578T
Malme-3M = system: Malme-3M
ACHN = system: ACHN
HCT-116 = system: HCT-116
HT-29 = system: HT-29
SK-MEL-2 = system: SK-MEL-2
MOLT-4 = system: MOLT-4
SR = system: SR
BT-549 = system: BT-549
NCI/ADR-RES = system: NCI/ADR-RES
HCC 2998 = system: HCC 2998
EKVX = system: EKVX
OVCAR-8 = system: OVCAR-8
NCI-H522 = system: NCI-H522
NCI-H226 = system: NCI-H226

Cc1ccc(/N=N/c2c(C)c(C#N)c(=S)n(C3OC(CO)C(O)C(O)C3O)c2C)cc1 (stereo not given)
GI50 (CCRF-CEM): 20 µM (inactive)
GI50 (U-251): 21.2 µM (inactive)
GI50 (SF-295): 36.3 µM (inactive)
GI50 (M14): 20.4 µM (inactive)
GI50 (UACC-257): 63 µM (inactive)
GI50 (HCT-15): 39 µM
GI50 (SF-539): 40.9 µM (inactive)
GI50 (SK-OV-3): 34.7 µM (inactive)
GI50 (RPMI-8226): 46 µM (inactive)
GI50 (NCI-H460): 23.7 µM (inactive)
GI50 (SK-MEL-5): 17.4 µM (inactive)
GI50 (SNB-19): 27.7 µM (inactive)
GI50 (A549): 40.6 µM (inactive)
GI50 (T47D): 23.3 µM (inactive)
GI50 (SK-MEL-28): 22.1 µM (inactive)
GI50 (UO-31): 37.5 µM (inactive)
GI50 (HL-60): 59.6 µM (inactive)
GI50 (NCI-H23): 32.1 µM (inactive)
GI50 (RXF 393): 26.1 µM (inactive)
GI50 (KM12): 41.1 µM (inactive)
GI50 (COLO 205): 38.7 µM (inactive)
GI50 (MDA-MB-231): 24.4 µM (inactive)
GI50 (SW-620): 16 µM (inactive)
GI50 (SF-268): 50.1 µM (inactive)
GI50 (HOP-62): 34.3 µM (inactive)
GI50 (OVCAR-4): 34.4 µM (inactive)
GI50 (SN12C): 28.2 µM (inactive)
GI50 (PC-3): 28.2 µM (inactive)
GI50 (OVCAR-5): 38.3 µM (inactive)
GI50 (IGROV-1): 38.9 µM (inactive)
GI50 (SNB-75): 25.4 µM (inactive)
GI50 (UACC-62): 13.5 µM (inactive)
GI50 (K562): 18.4 µM (inactive)
GI50 (HOP-92): 11.7 µM (inactive)
GI50 (MCF7): 35.6 µM (inactive)
GI50 (MDA-MB-435): 24.6 µM (inactive)
GI50 (DU-145): 53.1 µM (inactive)
GI50 (OVCAR-3): 29.6 µM (inactive)
GI50 (LOX IMVI): 18.2 µM (inactive)
GI50 (TK-10): 63.1 µM (inactive)
GI50 (786-0): 28.4 µM (inactive)
GI50 (CAKI-1): 37.2 µM (inactive)
GI50 (MDA-N): 36.4 µM (inactive)
GI50 (Hs-578T): 17 µM (inactive)
GI50 (Malme-3M): 21.7 µM (inactive)
GI50 (ACHN): 34 µM (inactive)
GI50 (HCT-116): 25.8 µM (inactive)
GI50 (HT-29): 30.9 µM (inactive)
GI50 (SK-MEL-2): 30.6 µM (inactive)
GI50 (MOLT-4): 12.9 µM (inactive)
GI50 (SR): 26 µM (inactive)
GI50 (BT-549): 26.2 µM (inactive)
GI50 (NCI/ADR-RES): 30.5 µM (inactive)
GI50 (HCC 2998): 21.7 µM (inactive)

Cc1cnc2sn(-c3ccc(Br)cc3)c(=O)c2c1
GI50 (EKVX): 41.2 µM (inactive)
GI50 (CCRF-CEM): 24.4 µM (inactive)
GI50 (U-251): 27.1 µM (inactive)
GI50 (SF-295): 26.5 µM (inactive)
GI50 (M14): 41.2 µM (inactive)
GI50 (UACC-257): 45.2 µM (inactive)
GI50 (HCT-15): 26.6 µM
GI50 (SF-539): 31.3 µM (inactive)
GI50 (SK-OV-3): 41.6 µM (inactive)
GI50 (RPMI-8226): 33.2 µM (inactive)
GI50 (NCI-H460): 32.5 µM (inactive)
GI50 (SK-MEL-5): 42.6 µM (inactive)
GI50 (SNB-19): 40.9 µM (inactive)
GI50 (A549): 36.6 µM (inactive)
GI50 (OVCAR-8): 62.5 µM (inactive)
GI50 (T47D): 13.4 µM (inactive)
GI50 (SK-MEL-28): 27.7 µM (inactive)
GI50 (UO-31): 43.9 µM (inactive)
GI50 (HL-60): 18.3 µM (inactive)
GI50 (NCI-H23): 33 µM (inactive)
GI50 (KM12): 74.8 µM (inactive)
GI50 (COLO 205): 26.8 µM (inactive)
GI50 (NCI-H522): 2.37 µM (inactive)
GI50 (MDA-MB-231): 30.5 µM (inactive)
GI50 (SW-620): 28.6 µM (inactive)
GI50 (SF-268): 38.7 µM (inactive)
GI50 (HOP-62): 27.7 µM (inactive)
GI50 (OVCAR-4): 26.2 µM (inactive)
GI50 (SN12C): 59.6 µM (inactive)
GI50 (PC-3): 36.6 µM (inactive)
GI50 (OVCAR-5): 44.2 µM (inactive)
GI50 (IGROV-1): 53.6 µM (inactive)
GI50 (SNB-75): 84.9 µM (inactive)
GI50 (UACC-62): 33.4 µM (inactive)
GI50 (HOP-92): 26.9 µM (inactive)
GI50 (MCF7): 30.3 µM (inactive)
GI50 (MDA-MB-435): 40 µM (inactive)
GI50 (DU-145): 50.5 µM (inactive)
GI50 (OVCAR-3): 22.2 µM (inactive)
GI50 (LOX IMVI): 23.3 µM (inactive)
GI50 (TK-10): 93.5 µM (inactive)
GI50 (786-0): 37.5 µM (inactive)
GI50 (CAKI-1): 16.7 µM (inactive)
GI50 (MDA-N): > 100 µM (inactive)
GI50 (Hs-578T): 30.7 µM (inactive)
GI50 (Malme-3M): 15.1 µM (inactive)
GI50 (ACHN): 35.6 µM (inactive)
GI50 (HCT-116): 42.8 µM (inactive)
GI50 (HT-29): 28.9 µM (inactive)
GI50 (SK-MEL-2): > 100 µM (inactive)
GI50 (MOLT-4): 30.4 µM (inactive)
GI50 (SR): 40.7 µM (inactive)
GI50 (NCI-H226): 52 µM (inactive)
GI50 (BT-549): 35 µM (inactive)
GI50 (NCI/ADR-RES): 70.1 µM (inactive)
GI50 (HCC 2998): 22.7 µM (inactive)
